US20060142591A1, “DAPH analogs and inhibition of protein aggregation” (priority 2004, published 2006)

Legend:
[1] = system: RML strain of mouse scrapie; assay type: in vivo, CD1 mice
Aβ42Total = Aβ42Total (Homo sapiens, UniProt P05067); test: Reversal of aggregated Aβ42Total fibrils, ThT assay; assay type: biochemical; conditions: depends on the concentration of compound
Method: Aβ42Total is unfractionated synthetic Aβ42 that was dissolved in water at pH 8-9 by using NH3 or at pH 10-11 by using dilute NaOH and stored at −40° C. Experimental samples were prepared by diluting the stock solution of Aβ42 to 10 μM (unless noted otherwise) in Tyrode's solution 2 mM Ca (150 mM NaCl/3 mM KCl/10 mM Hepes, pH 7.4/2 mM CaCl2/10 mM D-glucose, pH 7.4/0.02% Na azide). The synthetic Aβ42 was dissolved in water at a pH of ˜8 and then stored at −20° C. until diluted into Tyrode's Solution/2 mM Ca (pH 7.4). This preparation is “Aβ42Total”. To aggregate for use in experiments, it was preincubated for 24 or 48 h at 37° C. without stirring. To measure β-sheet formation, ThT was added to protein or peptide reaction mixtures, such as Aβ samples or NM aggregation, NM disaggregation or NM seed reaction mixtures following incubation and fluorescent measurements were read according to standard procedures. […] ThT fluorescence is measured at room temperature (e.g., in a Fluoroskan II at […] or a FLUOstar Optima plate-reader (BMG Lab Technologies, Durham, N.C.) at Ex=440 nm and Em=480 nm). The ThT fluorescence spectrum is measured in an spectrofluorimeter (e.g., f4500, Hitachi, Tokyo) at Ex=435 nm and Em=450-550 nm. Fibrils of aggregated Aβ42Total give a strong ThT fluorescence signal, indicating high β-sheet content.

Aβ fibrils = Aβ fibrils (Homo sapiens, UniProt P05067); test: Reversal of preformed Aβ fibrils, observed by EM; assay type: biochemical; conditions: Aβ aggregated 24 h at pH 7.4, then another 24 h with equimolar compound; vehicle 1% DMSO
Aβ fibrils, sequence (P05067 672-713 limits assumed): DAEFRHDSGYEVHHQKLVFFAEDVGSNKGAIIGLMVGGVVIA
Method: Aβ42Total is unfractionated synthetic Aβ42 that was dissolved in water at pH 8-9 by using NH3 or at pH 10-11 by using dilute NaOH and stored at −40° C. Experimental samples were prepared by diluting the stock solution of Aβ42 to 10 μM (unless noted otherwise) in Tyrode's solution 2 mM Ca (150 mM NaCl/3 mM KCl/10 mM Hepes, pH 7.4/2 mM CaCl2/10 mM D-glucose, pH 7.4/0.02% Na azide). The synthetic Aβ42 was dissolved in water at a pH of ˜8 and then stored at −20° C. until diluted into Tyrode's Solution/2 mM Ca (pH 7.4). This preparation is “Aβ42Total”. To aggregate for use in experiments, it was preincubated for 24 or 48 h at 37° C. without stirring. Negative-staining EM was used to visualize the kinetics and morphology of Aβ42 fibrillization over time, with and without the presence of DAPH analogs. Samples of 10 μM seedless Aβ42 (Aβ4230k) were incubated for a predetermined amount of time at 37° C. and vigorously vortex mixed immediately before and after incubation. Very small volumes, typically 5 μl, of each sample were absorbed for 2-4 min onto glow-discharged, carbon-coated, Formvar-filmed 400 mesh copper grids and gently wicked away with filter paper. […] Measurements were analyzed, and width-distribution histograms were produced by using EXCEL 98 (Microsoft). […]

Sup35 NM protein [2] = target: T1, Sup35 NM protein (Saccharomyces cerevisiae, UniProt P05453); test: NM aggregation assay; assay type: biochemical, yeast; conditions: soluble NM 5 μM
T1 construct: Soluble Sup35 NM protein (“NM”) was tested for aggregation
T1 sequence (P05453 1-253 limits assumed): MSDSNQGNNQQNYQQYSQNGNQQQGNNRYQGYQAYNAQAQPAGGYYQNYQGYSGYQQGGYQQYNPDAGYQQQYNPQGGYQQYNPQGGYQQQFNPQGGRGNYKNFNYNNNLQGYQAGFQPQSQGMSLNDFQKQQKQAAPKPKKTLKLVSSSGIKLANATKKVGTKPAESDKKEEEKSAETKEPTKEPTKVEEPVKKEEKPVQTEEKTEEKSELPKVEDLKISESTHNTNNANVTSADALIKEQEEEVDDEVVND
Method: Soluble Sup35 NM protein (“NM”) was tested for aggregation in the presence of DAPH, DAPH analogs or vehicle control (DMSO). NM protein (5 μM) was aggregated in the presence of DAPH (0-20 μM), DAPH analogs (0-20 μM) or DMSO (0-2% v/v). The assay mixture was incubated for 24 hr at 25° C., then tested for Congo Red binding to determine the extent of NM fiber formation.
(§1) Congo red was added to NM aggregation, NM disaggregation or NM seed reaction mixtures following incubation to a final concentration of 10 μM. After 30 min at 25° C., absorbances at 320, 477, and 540 nm were determined. Congo red dye binding was measured by using the equation [(OD540/25,295)−(OD477/46,306)] (Klunk et al., J. Histochem. Cytochem. 37:1273-1279, 1989) as described by Schirmer and Lindquist (Proc. Natl. Acad. Sci USA 94:13932-13937, 1997).
Soluble Sup35 NM (“NM”) at 5 μM was tested for aggregation in the presence of DAPH, DAPH analogs or vehicle control (DMSO). Aggregation of NM was inhibited by up to 100% (see FIG. 1). Inhibition of NM aggregation was concentration dependent.

NM protein fibers = target: T2, NM protein fibers (Saccharomyces cerevisiae, UniProt P05453); test: NM disaggregation assay; assay type: biochemical, yeast
T2 construct: Soluble Sup35 NM protein (“NM”) was tested for aggregation
T2 sequence (P05453 1-253 limits assumed): T1 sequence (P05453 1-253 limits assumed)
Method: For determining disaggregation of preformed aggregates, NM protein fibers (equivalent to 5 μM monomer) were incubated with DAPH (0-20 μM), DAPH analogs (0-20 μM) or DMSO (0-2% v/v). The assay mixture was incubated for 24 hr at 25° C., then tested for Congo Red or Thioflavin T binding to determine the extent of NM fibers remaining.
as §1
To measure β-sheet formation, ThT was added to protein or peptide reaction mixtures, such as Aβ samples or NM aggregation, NM disaggregation or NM seed reaction mixtures following incubation and fluorescent measurements were read according to standard procedures.
For measurement, each sample preferably is split into multiple wells of a 96-well black-bottom plate (e.g., catalog no. 35-3943, VWR International, Westchester, Pa.). ThT fluorescence is measured at room temperature (e.g., in a Fluoroskan II at […] or a FLUOstar Optima plate-reader (BMG Lab Technologies, Durham, N.C.) at Ex=440 nm and Em=480 nm). The ThT fluorescence spectrum is measured in an spectrofluorimeter (e.g., f4500, Hitachi, Tokyo) at Ex=435 nm and Em=450-550 nm.

amyloid β (Aβ) fibers = amyloid β (Aβ) fibers (Homo sapiens, UniProt P05067); conditions: Blanchard et al., PNAS 101:14326-14332, 2004; cited from earlier work
amyloid β (Aβ) fibers, sequence (P05067 672-713 limits assumed): as the sequence (P05067 672-713 limits assumed) above

Sup35 NM protein [3] = target: T1, Sup35 NM protein; test: NM seed assay; assay type: biochemical, yeast; conditions: disaggregated monomers used as seed at 2% or 5%
Method: Monomers of NM disaggregated by treatment with DAPH and DAPH analogs (see below) were tested for the ability to “seed” new NM fibers. Disaggregated monomers were used at 2% or 5% as described above for the NM aggregation assay.
as §1

Aβ4230k = Aβ4230k (Homo sapiens, UniProt P05067); test: Coincubation with seedless Aβ42 (fibrillization), observed by EM; assay type: biochemical
Aβ4230k, sequence (P05067 672-713 limits assumed): as the sequence (P05067 672-713 limits assumed) above

[4] = 1% brain homogenate incubated 48 hours with compound, lower doses of infectivity, log rank test

Aβ42Total, sequence (P05067 672-713 limits assumed): as the sequence (P05067 672-713 limits assumed) above

## COc1ccc(Nc2cc3c(cc2Nc2ccc(OC)cc2)C(=O)NC3=O)cc1 [DAPH-12, 5,6-Bis-(4-methoxy-phenylamino)-isoindole-1,3-dione]
[1]; 1% brain homogenate incubated 48 hours with compound, lower doses of infectivity, CD1 mice n=4 per group, log rank test
  median survival longer than DMSO controls: at least 60 days
[1]; [4]
  effect on survival / prion titers (in words): reduction in prion titers
Aβ42Total
  time for reversal of the fibrils, as detected by the ThT assay: takes only very few minutes

## O=C1NC(=O)c2cc(Nc3ccccc3)c(Nc3ccccc3)cc21 [DAPH, 4,5-dianilinophthalimide]
Aβ fibrils
  reversal of aggregation of Aβ fibrils as determined by EM: reversed the aggregation of the Aβ fibrils
Sup35 NM protein [2]
  effect on NM fiber assembly / NM aggregation (in words): antagonizes NM fiber assembly
Sup35 NM protein [2]; compound 0-20 μM, 24 hr at 25° C., Congo Red binding, FIG. 1, concentration dependent
  inhibition of NM aggregation: up to 100%
NM protein fibers; preformed NM aggregates, FIGS. 2 and 3
  disaggregation of preformed NM fibers as compared to the DMSO control: effective in disaggregation of preformed fibers
NM protein fibers; preformed NM fibers, FIG. 2
  dissolution of NM fibers as measured by Congo Red binding: partially dissolve NM fibers
NM protein fibers; preformed NM fibers, FIG. 3
  dissolution of NM fibers as measured by ThT fluorescence: partially dissolve NM fibers
[1]; [4]
  effect on survival / prion titers (in words): did not significantly alter survival
[1]; high doses of infectivity
  effect of treatment at high doses of infectivity: not observed
Aβ42Total
  time for reversal of the fibrils, as detected by the ThT assay: takes only very few minutes
Amyloid β (Aβ) fibers
  disaggregation of amyloid β (Aβ) fibers: can disaggregate amyloid β (Aβ) fibers
Sup35 NM protein [3]
  ability of NM protein to reform NM fibers following disaggregation: essentially unable to reform NM fibers
Aβ4230k; 24 h incubation
  elimination of higher-order structure, EM studies: nearly complete elimination of higher-order structure
Aβ4230k; coincubation of Aβ4230k with equimolar compound (10:10 μM), 1% DMSO
  elimination of the usual fibrils, as observed by EM: almost complete elimination of the usual fibrils
